Columns and labels:
Format in all cases: cell-based, mouse
[1] = tested on: α7 integrin (LacZ reporter in α7+/LacZ myotubes); test: Myotube α7 integrin FDG assay (Burkin assay in myotubes, 96-well); conditions: for Burkin Assay in Myotubes, value relative to DMSO: SU9516 analogs, 96-well, N=3-6
[2] = tested on: β-galactosidase in CMV-LacZ C2C12 myoblasts; test: CMV-LacZ secondary screen in C2C12 myoblasts (β-Gal stabilizing assay); conditions: for CMV-LACZ in Myoblasts (β-galactosidase activity relative to DMSO): CMV-LacZ C2C12 myoblasts; for CMV-LACZ in Myoblasts, value relative to DMSO: SU9516 analogs, C2C12 CMV-LacZ, N=2
Method in brief: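 Dose-response runs at 0.5–40 μM (0.5, 1, 5, 10, 20, 40 μM; N=2 per point) used a clonal C2C12 line carrying CMV-LacZ. Cells were assayed as myoblasts or as differentiated myotubes, and β-galactosidase levels were read with the FDG fluorogenic substrate.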

[3] = tested on: α7 integrin (LacZ reporter in α7βgal+/− myoblasts); test: Myoblast α7+/LacZ integrin FDG assay (Burkin assay in myoblasts, 96-well); conditions: 96-well; for Burkin Assay in Myoblasts, signal relative to DMSO: α7+/LacZ myoblasts; for Burkin Assay in Myoblasts, value relative to DMSO: SU9516 analogs, N=3-6
[4] = tested on: β-galactosidase in CMV-LacZ C2C12 myotubes; test: CMV-LacZ secondary screen in C2C12 myotubes (β-Gal stabilizing assay); conditions: for CMV-LACZ in Myotubes, signal relative to DMSO: C2C12 CMV-LacZ myotubes, fold relative to DMSO; for CMV-LACZ in Myotubes, value relative to DMSO: SU9516 analogs, C2C12 CMV-LacZ, N=2
Method in brief: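 First, C2C12 myoblasts were transfected with a linearized CMV-LACZ vector and clonal lines selected by FDG β-gal assay. Then cells were exposed to compounds at 0.5, 1, 5, 10, 20 and 40 μM in 96-well format, two replicates each, and β-gal measured.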

## c1ccc(-c2cc(-c3nc4ccccc4[nH]3)c3ccccc3n2)cc1 [MLS000554416-01]
[1]; 0.5 uM
  Burkin Assay in Myotubes, α7 integrin LacZ reporter signal relative to DMSO: 0.9146
[1]; 1 uM
  Burkin Assay in Myotubes, α7 integrin LacZ reporter signal relative to DMSO: 0.9261
[1]; 5 uM
  Burkin Assay in Myotubes, α7 integrin LacZ reporter signal relative to DMSO: 0.8366
[1]; 10 uM
  Burkin Assay in Myotubes, α7 integrin LacZ reporter signal relative to DMSO: 0.9334
[1]; 20 uM
  Burkin Assay in Myotubes, α7 integrin LacZ reporter signal relative to DMSO: 0.6816
[1]; 40 uM
  Burkin Assay in Myotubes, α7 integrin LacZ reporter signal relative to DMSO: 0.4915
[2]; 0.5 uM
  CMV-LACZ in Myoblasts (β-galactosidase activity relative to DMSO): 1.1310
[2]; 1 uM
  CMV-LACZ in Myoblasts (β-galactosidase activity relative to DMSO): 1.3983
[2]; 5 uM
  CMV-LACZ in Myoblasts (β-galactosidase activity relative to DMSO): 0.8594
[2]; 10 uM
  CMV-LACZ in Myoblasts (β-galactosidase activity relative to DMSO): 1.1123
[2]; 20 uM
  CMV-LACZ in Myoblasts (β-galactosidase activity relative to DMSO): 1.1077
[2]; 40 uM
  CMV-LACZ in Myoblasts (β-galactosidase activity relative to DMSO): 0.8611
[3]; 0.5 uM
  Burkin Assay in Myoblasts, signal relative to DMSO: 1.211
[3]; 1 uM
  Burkin Assay in Myoblasts, signal relative to DMSO: 1.0679
[3]; 5 uM
  Burkin Assay in Myoblasts, signal relative to DMSO: 0.9915
[3]; 10 uM
  Burkin Assay in Myoblasts, signal relative to DMSO: 0.9591
[3]; 20 uM
  Burkin Assay in Myoblasts, signal relative to DMSO: 1.087
[3]; 40 uM
  Burkin Assay in Myoblasts, signal relative to DMSO: 0.8248
[4]; 0.5 uM
  CMV-LACZ in Myotubes, signal relative to DMSO: 1.0019
[4]; 1 uM
  CMV-LACZ in Myotubes, signal relative to DMSO: 0.9629
[4]; 5 uM
  CMV-LACZ in Myotubes, signal relative to DMSO: 0.8969
[4]; 10 uM
  CMV-LACZ in Myotubes, signal relative to DMSO: 0.9798
[4]; 20 uM
  CMV-LACZ in Myotubes, signal relative to DMSO: 0.8760
[4]; 40 uM
  CMV-LACZ in Myotubes, signal relative to DMSO: 0.7060

## O=C(Nc1cc(-c2nc3ccccc3s2)ccc1Cl)c1ccc2c(c1)OCO2 [MLS000560266-01]
[1]; 0.5 uM
  Burkin Assay in Myotubes, α7 integrin LacZ reporter signal relative to DMSO: 0.9891
[1]; 1 uM
  Burkin Assay in Myotubes, α7 integrin LacZ reporter signal relative to DMSO: 0.8824
[1]; 5 uM
  Burkin Assay in Myotubes, α7 integrin LacZ reporter signal relative to DMSO: 1.037
[1]; 10 uM
  Burkin Assay in Myotubes, α7 integrin LacZ reporter signal relative to DMSO: 1.185
[1]; 20 uM
  Burkin Assay in Myotubes, α7 integrin LacZ reporter signal relative to DMSO: 0.6706
[1]; 40 uM
  Burkin Assay in Myotubes, α7 integrin LacZ reporter signal relative to DMSO: 0.6059
[2]; 0.5 uM
  CMV-LACZ in Myoblasts (β-galactosidase activity relative to DMSO): 0.9030
[2]; 1 uM
  CMV-LACZ in Myoblasts (β-galactosidase activity relative to DMSO): 0.8123
[2]; 5 uM
  CMV-LACZ in Myoblasts (β-galactosidase activity relative to DMSO): 0.9405
[2]; 10 uM
  CMV-LACZ in Myoblasts (β-galactosidase activity relative to DMSO): 0.9991
[2]; 20 uM
  CMV-LACZ in Myoblasts (β-galactosidase activity relative to DMSO): 1.1095
[2]; 40 uM
  CMV-LACZ in Myoblasts (β-galactosidase activity relative to DMSO): 1.0484
[3]; 0.5 uM
  Burkin Assay in Myoblasts, signal relative to DMSO: 0.953
[3]; 1 uM
  Burkin Assay in Myoblasts, signal relative to DMSO: 0.8556
[3]; 5 uM
  Burkin Assay in Myoblasts, signal relative to DMSO: 1.026
[3]; 10 uM
  Burkin Assay in Myoblasts, signal relative to DMSO: 1.13
[3]; 20 uM
  Burkin Assay in Myoblasts, signal relative to DMSO: 0.8321
[3]; 40 uM
  Burkin Assay in Myoblasts, signal relative to DMSO: 0.5589
[4]; 0.5 uM
  CMV-LACZ in Myotubes, signal relative to DMSO: 0.9724
[4]; 1 uM
  CMV-LACZ in Myotubes, signal relative to DMSO: 1.0000
[4]; 5 uM
  CMV-LACZ in Myotubes, signal relative to DMSO: 1.0253
[4]; 10 uM
  CMV-LACZ in Myotubes, signal relative to DMSO: 1.0224
[4]; 20 uM
  CMV-LACZ in Myotubes, signal relative to DMSO: 1.0520
[4]; 40 uM
  CMV-LACZ in Myotubes, signal relative to DMSO: 0.9470

## CCn1c(O)c(C(C#N)=C2N=c3ccccc3=N2)c2ccccc21 [MLS000564846-01]
[1]; 0.5 uM
  Burkin Assay in Myotubes, value relative to DMSO: 0.8836
[1]; 1 uM
  Burkin Assay in Myotubes, value relative to DMSO: 0.9557
[1]; 5 uM
  Burkin Assay in Myotubes, value relative to DMSO: 1.002
[1]; 10 uM
  Burkin Assay in Myotubes, value relative to DMSO: 1.071
[1]; 20 uM
  Burkin Assay in Myotubes, value relative to DMSO: 0.7006
[1]; 40 uM
  Burkin Assay in Myotubes, value relative to DMSO: 0.7529
[2]; 0.5 uM
  CMV-LACZ in Myoblasts, value relative to DMSO: 0.9922
[2]; 1 uM
  CMV-LACZ in Myoblasts, value relative to DMSO: 0.8172
[2]; 5 uM
  CMV-LACZ in Myoblasts, value relative to DMSO: 0.9379
[2]; 10 uM
  CMV-LACZ in Myoblasts, value relative to DMSO: 1.3619
[2]; 20 uM
  CMV-LACZ in Myoblasts, value relative to DMSO: 1.2363
[2]; 40 uM
  CMV-LACZ in Myoblasts, value relative to DMSO: 1.0885
[3]; 0.5 uM
  Burkin Assay in Myoblasts, value relative to DMSO: 0.8359
[3]; 1 uM
  Burkin Assay in Myoblasts, value relative to DMSO: 0.8438
[3]; 5 uM
  Burkin Assay in Myoblasts, value relative to DMSO: 0.8067
[3]; 10 uM
  Burkin Assay in Myoblasts, value relative to DMSO: 0.8704
[3]; 20 uM
  Burkin Assay in Myoblasts, value relative to DMSO: 0.7406
[3]; 40 uM
  Burkin Assay in Myoblasts, value relative to DMSO: 0.759
[4]; 0.5 uM
  CMV-LACZ in Myotubes, value relative to DMSO: 0.8304
[4]; 1 uM
  CMV-LACZ in Myotubes, value relative to DMSO: 1.0444
[4]; 5 uM
  CMV-LACZ in Myotubes, value relative to DMSO: 1.1234
[4]; 10 uM
  CMV-LACZ in Myotubes, value relative to DMSO: 0.8711
[4]; 20 uM
  CMV-LACZ in Myotubes, value relative to DMSO: 1.2012
[4]; 40 uM
  CMV-LACZ in Myotubes, value relative to DMSO: 1.0094
